ChEMBL document CHEMBL1145293, “Synthesis and SAR of GlyT1 inhibitors derived from a series of N-((4-(morpholine-4-carbonyl)-1-(propylsulfonyl)piperidin-4-yl)methyl)benzamides” (Bioorg Med Chem Lett, 2006)
pIC50: −log10 of the molar value. Converted amounts (≈) assume the structure as drawn.

Tests used:
[1] = Aqueous solubility of the compound; assay type: physicochemical
[2] = biological target: Cytochrome P450 3A4 (Homo sapiens, UniProt P08684); assay: Inhibition of CYP3A4; assay type: ADME
[3] = biological target: Cytochrome P450 2C9 (Homo sapiens, UniProt P11712); assay: Inhibition of CYP2C9; assay type: ADME
Chain of Cytochrome P450 2C9 (P11712 whole entry): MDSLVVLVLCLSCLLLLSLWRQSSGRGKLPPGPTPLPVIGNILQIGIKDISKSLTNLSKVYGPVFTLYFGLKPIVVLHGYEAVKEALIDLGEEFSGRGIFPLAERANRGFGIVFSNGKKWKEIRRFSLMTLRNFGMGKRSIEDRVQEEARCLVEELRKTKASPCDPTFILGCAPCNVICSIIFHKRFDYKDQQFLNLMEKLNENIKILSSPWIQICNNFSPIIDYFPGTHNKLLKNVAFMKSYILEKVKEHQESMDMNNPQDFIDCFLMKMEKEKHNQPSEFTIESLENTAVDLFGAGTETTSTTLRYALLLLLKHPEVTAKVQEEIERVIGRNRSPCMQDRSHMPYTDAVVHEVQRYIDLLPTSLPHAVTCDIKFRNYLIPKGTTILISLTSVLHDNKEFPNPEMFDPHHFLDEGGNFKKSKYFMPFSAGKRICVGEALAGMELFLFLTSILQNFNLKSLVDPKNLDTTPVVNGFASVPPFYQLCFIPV

[4] = biological target: T1, Sodium- and chloride-dependent glycine transporter 1 (Homo sapiens, UniProt P48067); assay: Inhibition of human GlyT1
T1 sequence (P48067 whole entry): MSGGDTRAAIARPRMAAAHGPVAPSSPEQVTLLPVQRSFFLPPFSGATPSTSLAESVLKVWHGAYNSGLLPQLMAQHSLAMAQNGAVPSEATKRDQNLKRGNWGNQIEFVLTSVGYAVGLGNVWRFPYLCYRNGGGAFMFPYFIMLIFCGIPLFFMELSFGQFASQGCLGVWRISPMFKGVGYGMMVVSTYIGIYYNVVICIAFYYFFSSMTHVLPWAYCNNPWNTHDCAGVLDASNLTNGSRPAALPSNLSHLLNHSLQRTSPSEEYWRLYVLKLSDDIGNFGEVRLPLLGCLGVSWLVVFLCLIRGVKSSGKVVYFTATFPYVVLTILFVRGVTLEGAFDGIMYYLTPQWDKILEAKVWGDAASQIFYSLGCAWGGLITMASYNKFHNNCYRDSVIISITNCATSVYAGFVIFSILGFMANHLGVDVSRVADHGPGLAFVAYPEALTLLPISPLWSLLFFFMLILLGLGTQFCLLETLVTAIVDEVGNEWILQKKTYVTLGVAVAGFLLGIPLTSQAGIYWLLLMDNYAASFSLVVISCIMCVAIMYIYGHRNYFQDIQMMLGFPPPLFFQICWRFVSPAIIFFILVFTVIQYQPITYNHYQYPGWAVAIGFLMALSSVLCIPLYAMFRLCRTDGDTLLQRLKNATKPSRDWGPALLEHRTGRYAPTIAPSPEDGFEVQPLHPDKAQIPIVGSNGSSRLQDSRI

[5] = biological target: T2, Sodium- and chloride-dependent glycine transporter 1 (Mus musculus, UniProt P28571); assay: Inhibition of mouse GlyT1
T2 sequence (P28571 whole entry): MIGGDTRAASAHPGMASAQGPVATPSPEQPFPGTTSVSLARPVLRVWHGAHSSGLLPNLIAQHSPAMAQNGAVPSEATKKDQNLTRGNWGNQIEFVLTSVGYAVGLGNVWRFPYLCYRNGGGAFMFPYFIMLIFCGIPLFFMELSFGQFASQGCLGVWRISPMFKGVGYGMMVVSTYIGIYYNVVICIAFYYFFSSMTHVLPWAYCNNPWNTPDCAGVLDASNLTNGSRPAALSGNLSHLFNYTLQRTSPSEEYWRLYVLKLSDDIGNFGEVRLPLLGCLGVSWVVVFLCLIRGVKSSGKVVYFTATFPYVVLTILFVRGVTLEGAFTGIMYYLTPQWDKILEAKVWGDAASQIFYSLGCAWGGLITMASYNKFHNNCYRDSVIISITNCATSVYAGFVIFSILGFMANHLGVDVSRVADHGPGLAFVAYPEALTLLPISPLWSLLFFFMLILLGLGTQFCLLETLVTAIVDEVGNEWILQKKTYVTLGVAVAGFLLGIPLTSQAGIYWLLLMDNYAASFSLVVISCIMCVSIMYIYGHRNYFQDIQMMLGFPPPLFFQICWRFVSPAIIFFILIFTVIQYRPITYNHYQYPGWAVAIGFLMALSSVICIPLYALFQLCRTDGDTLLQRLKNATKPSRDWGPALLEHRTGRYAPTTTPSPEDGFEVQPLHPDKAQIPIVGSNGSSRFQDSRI

[6] = Partition coefficient, log P of the compound; assay type: physicochemical; settings: octanol/water
[7] = Half life in rat; assay type: ADME, organism-based; settings: in vivo
[8] = Apparent permeability in Caco-2 cells; assay type: ADME, cell-based; settings: human
[9] = biological target: T3, Sodium- and chloride-dependent glycine transporter 2 (Homo sapiens, UniProt Q9Y345); assay: Inhibition of human GlyT2
T3 sequence (Q9Y345 whole entry): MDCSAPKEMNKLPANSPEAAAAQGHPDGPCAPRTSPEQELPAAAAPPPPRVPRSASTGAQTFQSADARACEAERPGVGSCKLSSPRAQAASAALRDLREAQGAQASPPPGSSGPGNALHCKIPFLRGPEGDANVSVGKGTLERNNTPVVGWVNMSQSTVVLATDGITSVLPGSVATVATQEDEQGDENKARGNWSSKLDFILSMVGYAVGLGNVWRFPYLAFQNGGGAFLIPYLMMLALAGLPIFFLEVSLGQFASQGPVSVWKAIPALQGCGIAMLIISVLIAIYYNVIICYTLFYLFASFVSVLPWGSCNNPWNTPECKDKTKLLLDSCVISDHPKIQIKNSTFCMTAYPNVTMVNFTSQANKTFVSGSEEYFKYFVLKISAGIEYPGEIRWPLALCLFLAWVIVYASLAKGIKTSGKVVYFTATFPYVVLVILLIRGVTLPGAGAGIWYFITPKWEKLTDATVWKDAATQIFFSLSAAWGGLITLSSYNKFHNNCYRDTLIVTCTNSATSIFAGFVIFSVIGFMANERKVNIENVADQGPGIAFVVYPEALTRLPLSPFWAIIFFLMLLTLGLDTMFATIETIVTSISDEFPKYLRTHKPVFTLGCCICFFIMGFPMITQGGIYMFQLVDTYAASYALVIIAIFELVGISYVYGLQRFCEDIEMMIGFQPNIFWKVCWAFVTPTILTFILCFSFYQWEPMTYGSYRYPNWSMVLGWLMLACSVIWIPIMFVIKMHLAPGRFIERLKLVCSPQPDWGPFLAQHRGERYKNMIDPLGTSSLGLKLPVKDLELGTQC

[10] = biological target: T4, Sodium- and chloride-dependent taurine transporter (Homo sapiens, UniProt P31641); assay: Inhibition of human TauT
T4 sequence (P31641 whole entry): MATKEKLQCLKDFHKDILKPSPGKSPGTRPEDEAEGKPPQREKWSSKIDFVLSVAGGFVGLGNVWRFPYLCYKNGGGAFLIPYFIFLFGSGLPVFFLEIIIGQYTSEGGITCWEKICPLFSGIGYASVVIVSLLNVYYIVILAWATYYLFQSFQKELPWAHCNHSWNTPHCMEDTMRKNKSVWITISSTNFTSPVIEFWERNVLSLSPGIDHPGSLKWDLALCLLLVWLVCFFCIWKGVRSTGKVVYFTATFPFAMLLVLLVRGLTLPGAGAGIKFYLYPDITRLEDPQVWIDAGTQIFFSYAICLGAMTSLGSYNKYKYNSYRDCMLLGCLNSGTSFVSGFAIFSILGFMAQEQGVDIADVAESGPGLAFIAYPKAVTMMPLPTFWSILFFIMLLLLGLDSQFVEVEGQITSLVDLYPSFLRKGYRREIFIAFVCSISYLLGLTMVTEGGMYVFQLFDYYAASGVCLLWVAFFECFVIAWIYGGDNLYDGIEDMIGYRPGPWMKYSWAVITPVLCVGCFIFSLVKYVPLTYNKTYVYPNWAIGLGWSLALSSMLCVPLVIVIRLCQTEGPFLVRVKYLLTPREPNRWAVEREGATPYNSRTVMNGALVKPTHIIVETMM

Chain of Cytochrome P450 3A4 (P08684 whole entry): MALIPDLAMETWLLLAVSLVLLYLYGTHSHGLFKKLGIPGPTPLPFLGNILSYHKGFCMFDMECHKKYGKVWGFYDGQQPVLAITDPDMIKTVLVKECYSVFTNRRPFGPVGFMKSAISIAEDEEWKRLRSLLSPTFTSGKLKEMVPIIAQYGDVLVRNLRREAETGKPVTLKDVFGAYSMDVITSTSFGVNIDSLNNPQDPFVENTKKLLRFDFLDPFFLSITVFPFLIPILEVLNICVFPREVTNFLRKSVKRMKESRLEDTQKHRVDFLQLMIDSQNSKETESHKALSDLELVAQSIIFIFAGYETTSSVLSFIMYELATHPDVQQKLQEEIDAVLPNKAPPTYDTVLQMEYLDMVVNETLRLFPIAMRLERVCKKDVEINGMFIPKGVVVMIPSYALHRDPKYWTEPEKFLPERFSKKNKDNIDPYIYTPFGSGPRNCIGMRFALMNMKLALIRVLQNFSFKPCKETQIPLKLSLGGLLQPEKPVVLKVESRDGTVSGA

| solubility [1] [µg/mL] | Activity [2] | Activity [3] | pIC50 [4] | pIC50 [5] | logP [6] | half-life [7] [min] | Papp [8] [×10⁻⁶ cm/s] | pIC50 [9] | pIC50 [10] | SMILES |
| --- | --- | --- | --- | --- | --- | --- | --- | --- | --- | --- |
| 10000 (≈ 20.4 mM) | Not Active | Not Active | 7.90 | 7.55 | < 1.4 | 18 | > 22 | < 4.52 | < 4.52 | CCCS(=O)(=O)N1CCC(CNC(=O)c2ccc(F)cc2Cl)(C(=O)N2CCOCC2)CC1 |
| 18000 (≈ 35.5 mM) | Not Active | Not Active | 8.62 | 8.12 | 1.4 | 22.2 | 23.6 | < 4.52 | < 4.52 | CCCS(=O)(=O)N1CCC(CNC(=O)c2ccc(Cl)cc2Cl)(C(=O)N2CCOCC2)CC1 |

Continued, molecule first:

| SMILES | solubility [1] [µg/mL] | Activity [2] | Activity [3] | pIC50 [4] | pIC50 [5] | logP [6] | half-life [7] [min] | Papp [8] [×10⁻⁶ cm/s] | pIC50 [9] | pIC50 [10] |
| --- | --- | --- | --- | --- | --- | --- | --- | --- | --- | --- |
| CCCS(=O)(=O)N1CCC(CNC(=O)c2ccccc2Cl)(C(=O)N2CCOCC2)CC1 | 10000 (≈ 21.2 mM) | Not Active | Not Active | 8.01 | 7.02 | < 1.4 | 18 | > 22 | < 4.52 | < 4.52 |
| CCCS(=O)(=O)N1CCC(CNC(=O)c2c(F)ccc(Cl)c2F)(C(=O)N2CCOCC2)CC1 | 10000 (≈ 19.7 mM) | Not Active | Not Active | 8.08 | 7.37 | < 1.4 | 18 | > 22 | < 4.52 | < 4.52 |
| CCCS(=O)(=O)N1CCC(CNC(=O)c2cc(F)c(Cl)cc2Cl)(C(=O)N2CCOCC2)CC1 | 10000 (≈ 19.1 mM) | Not Active | Not Active | 8.20 | 7.71 | < 1.4 | 18 | > 22 | < 4.52 | < 4.52 |
| CCCS(=O)(=O)N1CCC(CNC(=O)c2c(F)cccc2Cl)(C(=O)N2CCOCC2)CC1 | 10000 (≈ 20.4 mM) | Not Active | Not Active | 7.90 | 7.24 | < 1.4 | 18 | > 22 | < 4.52 | < 4.52 |
